Source: US5336690A, “Aminosulfonyl carbamates composition and method of use to treat hypercholesterolemia and atherosclerosis” (Warner-Lambert Company, priority 1993, dated 1994)
Structures can show the parent of a compound that is named as a salt. Where two headings read alike, the source gives them in different places.

Tests used:
[1] = target: T1, acyl-CoA: cholesterol acyltransferase (ACAT) (Oryctolagus cuniculus, UniProt G1SFD9); assay: in vitro ACAT inhibition (IAI): formation of radiolabeled cholesterol oleate from radiolabeled oleic acid in rabbit intestinal microsomes; format: biochemical
T1 construct: tissue preparation containing rabbit intestinal microsomes; from tissue; host or cells: rabbit intestinal microsomes
T1 sequence (G1SFD9 1-524): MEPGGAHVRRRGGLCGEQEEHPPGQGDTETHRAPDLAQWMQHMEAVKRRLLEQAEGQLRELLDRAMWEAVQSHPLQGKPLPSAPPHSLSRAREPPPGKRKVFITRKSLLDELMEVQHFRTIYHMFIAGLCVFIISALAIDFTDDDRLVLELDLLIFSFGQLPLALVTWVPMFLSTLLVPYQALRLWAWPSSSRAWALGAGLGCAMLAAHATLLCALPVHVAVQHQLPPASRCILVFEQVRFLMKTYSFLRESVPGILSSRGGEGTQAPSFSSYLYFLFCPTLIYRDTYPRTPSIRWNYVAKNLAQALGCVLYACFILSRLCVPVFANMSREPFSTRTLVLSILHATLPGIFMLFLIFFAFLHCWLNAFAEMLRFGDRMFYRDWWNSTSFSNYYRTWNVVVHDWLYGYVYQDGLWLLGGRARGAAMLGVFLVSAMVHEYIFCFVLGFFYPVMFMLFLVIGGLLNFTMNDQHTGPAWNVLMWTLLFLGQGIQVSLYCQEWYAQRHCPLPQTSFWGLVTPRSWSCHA
Procedure: The ability of representative compounds of the present invention to inhibit ACAT was measured using an in vitro test more fully described in F. J. Field and R. G. Salone, Biochemica et Biophysica 712:557-570 (1982). The test assesses the ability of a test compound to inhibit the acylation of cholesterol by oleic acid by measuring the amount of radiolabeled cholesterol oleate formed from radiolabeled oleic acid in a tissue preparation containing rabbit intestinal microsomes.

[2] = APCC in vivo screen: blood cholesterol in male Sprague-Dawley rats on high fat, high cholesterol diet with 0.5% cholic acid; conditions: single dose 30 mg/kg, high fat high cholesterol diet overnight; for % Change (mg/dl) (cholesterol): 30 mg/kg; for change in vivo at 30 mg/kg: read-out: % Change (mg/dl) (cholesterol)
From the text: In one in vivo screen designated APCC, male Sprague-Dawley rats (200 to 225 g) were randomly divided into treatment groups and dosed at 4 PM with either vehicle (CMC/Tween) or suspensions of compounds in vehicle. The normal chow diet was then replaced with a high fat, high cholesterol diet with 0.5% cholic acid. The rats consumed this diet ad libitum during the night and were sacrificed at 8 AM to obtain blood samples for cholesterol analysis using standard procedures. Statistical differences between mean cholesterol values for the same vehicle were determined using analysis of variance followed by Fisher's least significant test. The compounds were dosed at 30 mg/kg unless otherwise noted.

[3] = rabbit intestinal microsomes, read-out: IAI IC50

In the case of COC(=O)NS(=O)(=O)Nc1c(C(C)C)cccc1C(C)C [Example 1, Methyl [[2,6-bis(1-methylethyl)phenylamino]sulfonyl]carbamate], the IC50 [1, 3] is reported as > 100 µM.
In the case of CCCCN(CCCC)S(=O)(=O)NC(=O)Oc1c(C(C)C)cccc1C(C)C [Example 11, 2,6-Bis(1-methylethyl)phenyl[(dibutylamino)sulfonyl]carbamate], the “% Change (mg/dl) (cholesterol)” value ([2]; rat) is reported as -57 % Change (mg/dl) and the IC50 [1, 3] is reported as 1.9 µM.
Cc1cc(C(C)(C)C)c(OC(=O)NS(=O)(=O)N(C)CCc2ccccc2)c(C(C)(C)C)c1 [Example 27, 2,6-Bis(1,1-dimethylethyl)-4-methylphenyl[[methyl(2-phenylethyl)amino]sulfonyl]carbamate] gave a change in vivo at 30 mg/kg ([2]; Rattus norvegicus) of -29% and an IC50 [1, 3] of 18.9 µM.
With Cc1cc(C(C)(C)C)c(OC(=O)NS(=O)(=O)N(C)CCc2ccccn2)c(C(C)(C)C)c1 [Example 32, 2,6-Bis(1,1-dimethylethyl)-4-methylphenyl[[[methyl 2-(2-pyridinyl)ethyl]amino]sulfonyl]carbamate, hydrochloride salt] the “% Change (mg/dl) (cholesterol)” value ([2]; rat, hydrochloride salt) was -10 % Change (mg/dl) and the IC50 [1, 3] was 31 µM.
For CC(C)c1cccc(C(C)C)c1OC(=O)NS(=O)(=O)N1CCOCC1 [Example 50, 2,6-Bis(1-methylethyl)-phenyl ester(4-morpholinylsulfonyl)-carbamic acid], the change in vivo at 30 mg/kg ([2]; Rattus norvegicus) was -14% and the IC50 [1, 3] was > 100 µM.
With CC(C)c1cccc(C(C)C)c1OC(=O)NS(=O)(=O)N1CCCCC1 [Example 51, 2,6-Bis(1-methylethyl)-phenyl ester(1-piperidinylsulfonyl)-carbamic acid] the change in vivo at 30 mg/kg ([2]; Rattus norvegicus) was -11% and the IC50 [1, 3] was > 100 µM.
With CC(C)c1cccc(C(C)C)c1OC(=O)NS(=O)(=O)N1CCN(C)CC1 [Example 53, 2,6-Bis(1-methylethyl)-phenyl ester, monohydrochloride[(4-methyl-1-piperazinyl)-sulfonyl] carbamic acid] the change in vivo at 30 mg/kg ([2]; rat) was -21% and the IC50 [1] was > 100 µM.
In the case of CC(C)c1cccc(C(C)C)c1NS(=O)(=O)NC(=O)Oc1c(-c2ccccc2)cccc1-c1ccccc1 [Example 56, [1,1':3', 1"-terphenyl]-2'-yl[[[2,6-bis(1-methylethyl)phenyl]amino]sulfonyl]carbamat], the change in vivo at 30 mg/kg ([2]; Rattus norvegicus) is reported as -39% and the IC50 [1, 3] is reported as > 25 µM.
With CCCCN(CCCC)S(=O)(=O)NC(=O)Oc1c(C(C)C)cccc1C(C)C [Example 57, 2,6-bis(1-methylethyl)phenyl[(dibutylamino)sulfonyl]carbamate monosodium salt] the “% Change (mg/dl) (cholesterol)” value ([2]; rat, monosodium salt) was -66 % Change (mg/dl).
CN(C(=O)Oc1c(C(C)(C)C)cccc1C(C)(C)C)S(=O)(=O)NC(c1ccccc1)c1ccccc1 [Example 58, 2,6-bis(1,1-dimethylethyl)phenyl[[(diphenylmethyl)amino]sulfonyl]methyl carbamate] showed a change in vivo at 30 mg/kg ([2]; Rattus norvegicus) of 4%.
